# Source: patent US20250002918A1, “COMPOSITIONS AND METHODS FOR TREATMENT OF MIC60 DEPLETED CANCERS AND METASTASIS” (The Wistar Institute of Anatomy and Biology, priority 2021, published 2025)
# Key:
# [1] = test system: PC3 cells stably transduced with pLKO or Mic60-directed shRNA (shMic60); assay: Small-molecule drug screening, cell viability (CellTiterGlo); conditions: drug screen, 72-h incubation, based on IC50 values (FIG. 4A, 4B)
# Procedure: (§1) FIG. 4A-FIG. 4I show therapeutic vulnerability of GCN2/Akt signaling exposed by Mic60 depletion. (FIG. 4A and FIG. 4B) PC3 cells transduced with pLKO or shMic60 were analyzed in a high-throughput drug screening (FIG. 4A), and candidate compounds with differential tumor cell killing in shCtrl- or shMic60-transduced cultures (FIG. 4B) were analyzed based on IC50 values (nM). (FIG. 4C) PC3 cells transfected with siMic60 were analyzed for differential ISR gene expression by RNA-Seq. A representative experiment is shown. (FIG. 4D) PC3 cells transfected with siCtrl or siMic60 were analyzed by Western blotting. p, phosphorylated. (FIG. 4E) PC3 cells as in FIG. 4A and FIG. 4B were transfected with ATF4-mScarlet nuclear reporter gene and analyzed by flow cytometry in two independent experiments (Exp). The percentage of cells in gated regions is indicated. (FIG. 4F) Kaplan-Meier survival curves for differential expression of DDIT3 or ATF4 in Mic60-low GBM or pan-kidney cancer cohort comprising kidney chromophobe, kidney renal clear cell carcinoma, and kidney renal papillary cell carcinoma (KIPAN) in the Human Protein Atlas database. The number of patients per each condition and P values are indicated. (FIG. 4G) PC3 cells as in FIG. 4A and FIG. 4B were incubated with vehicle (Veh) or GCN2-IN-1 small-molecule inhibitor to GCN2 and analyzed for Annexin V/PI staining by multiparametric flow cytometry. The percentage of cells in each quadrant is indicated in a representative experiment (n=2). (FIG. 4H) PC3 cells were transfected with siCtrl or GCN2-directed siRNA (siGCN2) and analyzed by Western blotting. (FIG. 4I) PC3 cells were transfected with siCtrl or GCN2-directed siRNA (siGCN2) and analyzed for cell death by Trypan blue exclusion and light microscopy after 72 h. Mean±SD.
# Cell viability screening against the MedChem Express anti-cancer library (1,820 compounds) was performed using CellTiterGlo (Promega). PC3 cells stably transduced with pLKO or Mic60-directed shRNA (shMic60) were maintained in complete media, trypsinized, and plated (500 cells/well) in 40 μL of complete medium the day before the experiment in white, clear-bottom 384-well plates. A total of 50 nL of test compound was added to each well using the Janus MDT Nanohead (Perkin-Elmer). Each compound was screened at a final concentration of 10, 1, 0.1, and 0.01 μM. After a 72-h incubation at 37° C. in the presence of 5% CO2, 20 μL of the CellTiterGlo reagent was added to each well. After 15 min, luminescence was measured using the Envision Multimode plate reader (PerkinElmer). The raw data were normalized to % inhibition, where 0% is the relative light units (RLU) in the presence of dimethylsulfoxide, and 100% is the RLU in the presence of 1 μM bortezomib. Estimated half maximal inhibitory concentration (IC50) values for each compound were determined using nonlinear regression fits on the data to a one-site binding model in XlFit (ID Business Solutions Ltd. [IDBS]). Because only 4 data points were used in this calculation, the top and bottom of the curve was fixed to 100% and 0%, respectively, with a constant slope value of 1.
# [2] = test system: PC3 cells transduced with pLKO or shMic60; assay: Tumor cell proliferation; assay type: cell-based; conditions: for suppression of proliferation, Mic60-depleted vs control transfectants: PC3 cells
# PC3 cells = assay: Single-cell motility by time-lapse videomicroscopy; assay type: cell-based; conditions: Mic60-silenced PC3 cells vs control transfectants
# Procedure: (§2) Cells ([…]) were seeded in 4-well Ph+ Chambers (Ibidi) in complete growth medium and allowed to attach for 16 h at 37° C. Time-lapse videomicroscopy was performed over 10 h, with a time-lapse interval of 10 min. Stacks were imported into Image J Fiji software for analysis, and at least 10 to 20 cells per condition were tracked using the Manual Tracking plugin for Image J Fiji. Tracking data were exported into the Chemotaxis and Migration Tool v. 2.0 (Ibidi) for graphing and calculation of the mean and SD of speed and accumulated distance of movement. For directional cell migration, wounds were made in monolayers of PC3 cells using a 10-μL pipette tip. Cell debris were washed off, and cultures were maintained in complete growth medium containing 10% fetal bovine serum at 37° C. and 5% CO2. Time-lapse imaging of migrating cells was performed using a TE300 inverted microscope (Nikon) equipped with an incubator set at 37° C., 5% CO2, and 95% relative humidity. Each image was acquired using a 10× objective of the same fields at each 10-min interval for a total of 24 h.
# LN229 cells = assay: Single-cell motility by time-lapse videomicroscopy; assay type: cell-based; conditions: Mic60-silenced LN229 cells vs control transfectants
# Procedure: as §2
# [3] = test system: Mic60-silenced tumor cells; assay: Focal adhesion (FA) dynamics after Mic60 silencing; assay type: cell-based
# [4] = test system: PC3 cells transduced with pLKO or shMic60; assay: Caspase-dependent cell death; assay type: cell-based
# [5] = test system: PC3 cells transduced with pLKO or shMic60; assay: Annexin V/PI staining by multiparametric flow cytometry; assay type: cell-based; conditions: preferentially in Mic60-silenced PC3 cells compared to control cultures (FIG. 4G)
# Procedure: as §1, with “(FIG. 4F) Kaplan-Meier survival curves for differential expression of DDIT3 or ATF4 in Mic60-low GBM or pan-kidney cancer cohort comprising kidney chromophobe, kidney renal clear cell carcinoma, and kidney renal papillary cell carcinoma (KIPAN) in the Human Protein Atlas database. The number of patients per each condition and P values are indicated.” left out, “The percentage of cells in each quadrant is indicated in a representative experiment (n=2).” left out, “Mean±SD.” left out
# Mic60-silenced cells = assay: Tumor cell invasion (Matrigel); assay type: cell-based; conditions: Mic60-silenced cells reconstituted with the scavenger
# Procedure: FIG. 3A-FIG. 3G show Mic60 regulation of tumor cell motility and metastasis. (FIG. 3A) PC3 cells transduced with pLKO or shMic60 were analyzed for circularity (Top; 1=perfect sphere) and surface area (Bottom). Each symbol corresponds to an individual determination. Min to max values are indicated (pLKO, n=36; shMic60, n=39). *** P<0.0001 to 0.0009. (FIG. 3B) PC3 cells as in FIG. 3A were analyzed by Western blotting. (FIG. 3C) PC3 cells transduced with pLKO or shMic60 were analyzed for single-cell motility in 2D contour plots by time-lapse video microscopy. Each tracing corresponds to the movements of an individual cell (pLKO, n=90; shMic60, n=94). The average speed of cell movements (velocity [Vel], μm/min) and distance traveled (Dis; μm) are indicated. Mean±SD (n=3). P<0.0001. […] (FIG. 3D) PC3 cells as in FIG. 3A or WT or Mic60 KO PC3 cells were analyzed for invasion across Matrigel-coated inserts and quantified. […] (FIG. 3F) PC3 cells as in FIG. 3A were injected into the spleen of NSG mice, and liver samples harvested after 11 d were stained with hematoxylin/eosin, and the number (FIG. 3F, Top) and surface area (FIG. 3F, Bottom) of metastatic foci were quantified by morphometry. […] (FIG. 3G) Matched patient samples of LUAD representative of normal parenchyma (N), primary tumor (P), or metastasis (M) were analyzed for differential Mic60 expression by RT-PCR. […]
smiles,measurement,setting,value
O=c1[nH]c2ccccc2n1C1CCN(Cc2ccc(-c3nc4cc5[nH]cnc5cc4nc3-c3ccccc3)cc2)CC1 [Akt inhibitor VIII],"differential tumor cell killing, Mic60-silenced vs control cultures",[1],killed Mic60-silenced PC3 cells more efficiently than control cultures
same,"suppression of proliferation, Mic60-depleted vs control transfectants",[2],suppressed proliferation selectively of Mic60-depleted PC3 cells
CN(c1ncccc1CNc1nc(Nc2ccc3c(c2)CC(=O)N3)ncc1C(F)(F)F)S(C)(=O)=O [FAKi],single-cell motility,PC3 cells,restored the single-cell motility of PC3 or LN229 cells to levels of control transfectants
same,single-cell motility,LN229 cells,restored the single-cell motility of PC3 or LN229 cells to levels of control transfectants
same,FA dynamics,[3],normalized FA dynamics
c1nn(C2CCOCC2)cc1Nc1ncc2nnn(-c3ccc4cn[nH]c4c3)c2n1 [GCN2-IN-1],"differential tumor cell killing, Mic60-silenced vs control cultures",[1],killed Mic60-silenced PC3 cells more efficiently than control cultures
same,proliferation (cell number) with GCN2 inhibitor,[2]; pLKO control PC3 cells,3.3×10^5±0.62×10^5 cells
same,proliferation (cell number) with GCN2 inhibitor,"[2]; shMic60 PC3 cells, P=0.009 vs pLKO",1.95×10^5±0.4×10^5 cells
same,caspase-dependent cell death,[4]; pLKO control PC3 cells,8.4±6.3%
same,caspase-dependent cell death,"[4]; shMic60 PC3 cells, P=0.04 vs pLKO",23.1±5.6%
same,Annexin V-associated apoptosis,[5],activated Annexin V-associated apoptosis
NC1(c2ccc(-c3nc4ccn5c(=O)[nH]nc5c4cc3-c3ccccc3)cc2)CCC1 [MK2206],"suppression of proliferation, Mic60-depleted vs control transfectants",[2],suppressed proliferation selectively of Mic60-depleted PC3 cells
CC1(C)CC(NC(=O)C[P+](c2ccccc2)(c2ccccc2)c2ccccc2)CC(C)(C)N1[O] [MitoTempo],tumor cell invasion,Mic60-silenced cells,normalized tumor cell invasion to control levels
C/C(=N\NC(=S)N1CCC1)c1ccccn1 [NSC319726],"differential tumor cell killing, Mic60-silenced vs control cultures",[1],preferential killing against Mic60-low PC3 cells
CS(=O)(=O)N1CCC(NC(=O)c2[nH]ncc2NC(=O)c2c(Cl)cccc2Cl)CC1 [NVP-LCQ195],"differential tumor cell killing, Mic60-silenced vs control cultures",[1],preferential killing against Mic60-low PC3 cells
CC1(C)CCC(c2ccc(Cl)cc2)=C(CN2CCN(c3ccc(C(=O)NS(=O)(=O)c4ccc(N[C@H](CCN5CCOCC5)CSc5ccccc5)c(S(=O)(=O)C(F)(F)F)c4)cc3)CC2)C1 [Navitoclax],"differential tumor cell killing, Mic60-silenced vs control cultures",[1],preferential killing against Mic60-low PC3 cells
C/C(=N\NC(=O)c1cccc(S(=O)(=O)N2CCOCC2)c1)c1cc(Cl)ccc1O [SP2509],"differential tumor cell killing, Mic60-silenced vs control cultures",[1],preferential killing against Mic60-low PC3 cells
COc1cc2c(cc1OC)CN(CCc1ccc(NC(=O)c3cc(OC)c(OC)cc3NC(=O)c3cnc4ccccc4c3)cc1)CC2 [Tariquidar],"differential tumor cell killing, Mic60-silenced vs control cultures",[1],preferential killing against Mic60-low PC3 cells
COc1cc(/C=C/C(=O)CC(=O)/C=C/c2ccc(O)c(OC)c2)ccc1O [curcumin],"differential tumor cell killing, Mic60-silenced vs control cultures",[1],preferential killing against Mic60-low PC3 cells
COc1cc([C@@H]2c3cc4c(cc3[C@H](O)[C@H]3COC(=O)[C@H]23)OCO4)cc(OC)c1OC [podophyllotoxin],"differential tumor cell killing, Mic60-silenced vs control cultures",[1],preferential killing against Mic60-low PC3 cells
